Assay results from patent publication US20100022766A1, “BIOSYNTHETIC GENE CLUSTER FOR THE PRODUCTION OF A COMPLEX POLYKETIDE” (WYETH, priority 2008, published 2010).

Key:
cortical neuron cultures = test: cortical neuron assay, neurite outgrowth (Cellomics ArrayScan ENO); type: cell-based; conditions: Rattus norvegicus, Cortical neurone, 72 hours treatment
Procedure: Dissociated cortical neuron cultures were prepared as previously described [Pong et al, “Attenuation of staurosporine-induced apoptosis, oxidative stress, and mitochondrial dysfunction by synthetic superoxide dismutase and catalase mimetics, in cultured cortical neurons”, Exp Neurol. 2001 September; 171(1):84-97.] Briefly, embryonic day 15 rat fetuses were collected and dissected in ice-cold PBS. Dissected cortices were pooled together and transferred to an enzymatic dissociation medium containing papain. After 30 min, the tissue was mechanically triturated with a fire-polished glass Pasteur pipette. Single-cell suspensions in complete media were seeded on poly-L-ornithine and laminin coated 96-well plates. Twenty-four hours later, cultures were treated with various concentrations of compound of formula III for 72 hours. The cultures were then fixed and stained with an anti-tubulin antibody (TUJ-1) and a fluorescent-tagged secondary antibody. Neurite outgrowth was determined by using the Enhanced Neurite Outgrowth (ENO) algorithm with the Cellomics ArrayScan and expressed as average neurite length or neurite length per cell

[1] = test system: cultured cortical neurons; test: neurofilament content in cultured cortical neurons; type: cell-based, rat; conditions: 72 hours
Procedure: Dissociated cortical neuron cultures were prepared as previously described [Pong et al., Exp Neurol. 2001 September; 171(1):84-97 (2001)]. Briefly, embryonic day 15 rat fetuses were collected and dissected in ice-cold PBS. Dissected cortices were pooled together and transferred to an enzymatic dissociation medium containing papain. After 30 min, the tissue was mechanically triturated with a fire-polished glass Pasteur pipette. Single-cell suspensions in complete media were seeded on poly-L-ornithine and laminin coated 96-well plates. 24 hours later, cultures were treated with various concentrations of compound of formula (III) for 72 hours. The cultures were then fixed and stained with a neurofilament primary antibody and a peroxidase-tagged secondary antibody. A peroxidase substrate (K-Blue Max) was added and the calorimetric change was measure on a calorimetric plate reader.

[2] = test system: cultured cortical neurons; test: total neurite length in cultured cortical neurons; type: cell-based, rat; conditions: 72 hours
Procedure: Dissociated cortical neuron cultures were prepared as previously described (Pong et al., cited above, 2001). Briefly, embryonic day 15 rat fetuses were collected and dissected in ice-cold PBS. Dissected cortices were pooled together and transferred to an enzymatic dissociation medium containing papain. After 30 minutes, the tissue was mechanically triturated with a fire-polished glass Pasteur pipette. Single-cell suspensions in complete media were seeded on poly-L-ornithine and laminin coated 96-well plates. After 24 hours, cultures were treated with various concentrations of the compound of formula III for 72 hours. The cultures were then fixed and stained with an anti-tubulin primary antibody (TU-1) and a fluorescent-tagged secondary antibody. Neurite outgrowth was determined by using the Enhanced Neurite Outgrowth (ENO) algorithm with the Cellomics ArrayScan and expressed as total neurite length per cell.

[3] = test system: cultured dorsal root ganglia; test: total neurite length in cultured dorsal root ganglia; type: cell-based, rat; conditions: 72 hours
Procedure: Dissociated dorsal root ganglia cultures were prepared as previously described [A. Wood et al., “Stimulation of neurite outgrowth by immunophilin ligands: quantitative analysis by Cellomics Array scan” Society for Neuroscience (2004), abstract 104.31. Briefly, postnatal day 3-5 rat pups were euthanized. The spinal columns were removed and individual dorsal root ganglia (DRG) were dissected out. Dissected DRG were pooled together and transferred to an enzymatic dissociation medium containing papain. After 60 minutes, the tissue was mechanically triturated with a fire-polished glass Pasteur pipette. Single-cell suspensions in complete media were seeded on poly-L-ornithine and laminin coated 96-well plates. After 24 hours, cultures were treated with various concentrations of the compound of formula III for 72 hours. The cultures were then fixed and stained with an anti-tubulin primary antibody (TUJ-1) and a fluorescent-tagged secondary antibody. Neurite outgrowth was determined by using the Enhanced Neurite Outgrowth (ENO) algorithm with the Cellomics ArrayScan and expressed as total neurite length per cell.

[4] = test system: mesencephalic dopanergic neuron cultures; test: high-affinity 3H-DA uptake in ventral mesencephalic cultures, with or without MPP+ exposure; type: cell-based, rat; conditions: for protection against MPP toxicity: pre-treatment 1 hr or 24 hr, then MPP+ for 1 hr, recovery 24 hr or 48 hr, 3H-DA uptake readout
Procedure: Ventral mesencephalic cultures were prepared from E15 rat embryos and maintained for […] before experimentation according to the method of Pong et al., J Neurochem.
Cultures were then exposed to 10 μM 1-methyl-4-phenylpyridinium (MPP+) for 1 hr, in the presence of drug. After the 1 hr exposure, media was changed 3×, and fresh drug was added for an additional 24 hr or 48 hr.

FKBP12 = FKBP12 (Homo sapiens, UniProt P62942); conditions: cited from earlier work
[5] = cited from earlier work

FKBP12, sequence (P62942 whole entry, species assumed): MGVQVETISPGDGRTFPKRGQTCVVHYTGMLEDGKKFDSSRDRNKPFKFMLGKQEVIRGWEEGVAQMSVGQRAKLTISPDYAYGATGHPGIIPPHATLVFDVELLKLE

Row | Molecule | EC50 (cortical neuron cultures) [nM] | NEUROFILAMENT CONTENT (FOLD-INCREASE ABOVE CONTROL) ([1]; 10 nM) | NEUROFILAMENT CONTENT (FOLD-INCREASE ABOVE CONTROL) ([1]; 100 nM) | NEUROFILAMENT CONTENT (FOLD-INCREASE ABOVE CONTROL) ([1]; 1 μM) | NEUROFILAMENT CONTENT (FOLD-INCREASE ABOVE CONTROL) ([1]; 10 μM) | TOTAL NEURITE LENGTH (% ABOVE CONTROL) ([2]; 10 nM) [%] | TOTAL NEURITE LENGTH (% ABOVE CONTROL) ([2]; 100 nM) [%] | TOTAL NEURITE LENGTH (% ABOVE CONTROL) ([2]; 1 μM) [%] | TOTAL NEURITE LENGTH (% ABOVE CONTROL) ([2]; 10 μM) [%] | TOTAL NEURITE LENGTH (% ABOVE CONTROL) ([3]; 10 nM) [%] | TOTAL NEURITE LENGTH (% ABOVE CONTROL) ([3]; 100 nM) [%] | TOTAL NEURITE LENGTH (% ABOVE CONTROL) ([3]; 1 μM) [%] | TOTAL NEURITE LENGTH (% ABOVE CONTROL) ([3]; 10 μM) [%] | protection against MPP toxicity [4] | FKBP12 binding activity (FKBP12) | neuroprotective activity in vitro [5] | DA uptake ([4]; normal cultures, no MPP+)
1 | CC/C1=C\CC(/C(C)=C/C(C)C(C)O)OC(=O)C2CCCCN2C(=O)CC2(O)OC(CCC2C)CC(O)C(C)C(O)CC(O)CC(O)/C(C)=C/C(C)CC(C)C1O (stereo not drawn) [Example 9, C9-deoxomeridamycin] | < 1000 | 1.9 FOLD-INCREASE ABOVE CONTROL | 2.19 FOLD-INCREASE ABOVE CONTROL | 2.24 FOLD-INCREASE ABOVE CONTROL | 2.29 FOLD-INCREASE ABOVE CONTROL | 10 | 54 | 86 | 121 | 17 | 24 | 36 | 64 |  |  |  | 
2 | CC/C1=C\CC(/C(C)=C/C(C)C(C)O)OC(=O)C2CCCCN2C(=O)C(=O)C2(O)OC(CCC2C)CC(O)C(C)C(O)CC(O)CC(O)/C(C)=C/C(C)CC(C)C1O (stereo not drawn) [meridamycin, Meridamycin] |  |  |  |  |  |  |  |  |  |  |  |  |  | partial, but significant protection | strong FKBP12 binding activity | significant neuroprotective activity in vitro | 
3 | GDNF: glial-derived neurotrophic factor, used as control (protein, UniProt P39905 78-211, looked up) Glial cell line-derived …: SPDKQMAVLPRRERNRQAAAANPENSRGKGRRGQRGKNRGCVLTAIHLNVTDLGLGYETKEELIFRYCSGSCDAAETTYDKILKNLSRNRRLVSDKVGQACCRPIAFDDDLSFLDDNLVYHILRKHSAKRCGCI |  |  |  |  |  |  |  |  |  |  |  |  |  | partial, but significant protection |  |  | enhanced DA uptake
